# Experimental data from patent US6531496B1 (Bayer Aktiengesellschaft, priority 1999, dated 2003).
# Key:
# Plasmopara viticola = test: Plasmopara test (grapevine)/protective; format: in vivo; conditions: 144 h, protective, evaluated 6 days after inoculation, read-out: Efficacy in %
# Method: Plasmopara Test (Grapevine)/Protective Solvent: 47 parts by weight of acetone Emulsifier: 3 parts by weight of alkylaryl polyglycol ether To prepare a suitable active compound preparation, 1 part by weight of active compound is mixed with the stated amounts of solvent and emulsifier, and the concentrate is diluted with water to the desired concentration. To test for protective activity, young plants are sprayed with the active compound preparation at the application rate stated. After the spray coating has dried on, the plants are inoculated with an aqueous spore suspension of Plasmopara viticola and then remain for 1 day in an incubation cabinet at approx. 20° C. and a relative atmospheric humidity of 100%. […] The plants are then moistened and placed in an incubation cabinet for 1 day.
# Venturia inaequalis = test: Venturia test (apple)/protective; format: in vivo; conditions: 288 h, protective, evaluated 12 days after inoculation, read-out: Efficacy in %
# Method: Venturia Test (Apple)/Protective Solvent: 47 parts by weight of acetone Emulsifier: 3 parts by weight of alkylaryl polyglycol ether To prepare a suitable active compound preparation, 1 part by weight of active compound is mixed with the stated amounts of solvent and emulsifier, and the concentrate is diluted with water to the desired concentration. To test for protective activity, young plants are sprayed with the active compound preparation at the application rate stated. After the spray coating has dried on, the plants are inoculated with an aqueous conidial suspension of the apple scab pathogen Venturia inaequalis and then remain for 1 day in an incubation cabinet at approx. 20° C. and 100% relative atmospheric humidity.
# [1] = logP by HPLC (EEC Directive 79/831 Annex V. A8, gradient method); format: physicochemical
# Aspergillus Niger = test: Minimum inhibitory concentration on malt extract agar; format: cell-based; conditions: 2 weeks at 28° C.
# Method: (§1) To confirm the activity against fungi (Penicillium brevicaule, Chaetomium globosum, Aspergillus Niger), the minimum inhibitory concentrations (MICs) of agents according to the invention are determined:
# (§2) Active compounds according to the invention are added in concentrations of from 0.1 mg/l to 5 000 mg/l to an agar prepared using malt extract. […] The MIC is the lowest concentration of active compound at which no growth whatsoever by the microbial species used occurs; it is indicated in the table which follows.
# Chaetomium globosum = test: as above; format: cell-based; conditions: 2 weeks at 28° C.
# Method: as §1, §2
# Penicillium brevicaule = test: as above; format: cell-based; conditions: 2 weeks at 28° C.; for MIC: Penicillium, 336 h, read-out: Minimum inhibitory concentrations Penicillium brevicaule
# Method: as §1, §2
# [2] = system: green peach aphid (Myzus persicae); test: Myzus test; format: in vivo; conditions: active compound concentration 0.01%
# Method: Solvent: 6 parts by weight of dimethylformamide
# 67 parts by weight of methanol
# Emulsifier: 2 parts by weight of alkylaryl polyglcol ether
# To prepare a suitable active compound preparation, 1 part by weight of active compound is mixed with the stated amount of solvent and the stated amount of emulsifier, and the concentrate is diluted with emulsifier-containing water to the desired concentrations.
# Field bean (Vicia faba) seedlings which are infested with the green peach aphid (Myzus persicae) are immersed into an active compound preparation of the desired concentration and placed into a plastic box.
# After the desired period of time, the destruction is determined in %. 100% means that all the animals have been killed; 0% means that none of the animals have been killed.
# [3] = system: greenhouse red spider mite (Tetranychus urticae); test: Tetranychus test (OP-resistant/immersion treatment); format: in vivo; conditions: active compound concentration 0.01%
# Method: Tetranychus Test (OP-resistant/Immersion Treatment)
# Solvent: 3 parts by weight of dimethylformamide
# Emulsifier: 1 part by weight of alkylaryl polyglycol ether
# To prepare a suitable active compound preparation, 1 part by weight of active compound is mixed with the stated amount of solvent and the stated amount of emulsifier, and the concentrate is diluted with water to the desired concentrations.
# Bean plants (Phaseolus vulgaris) which are severely infested by all stages of the greenhouse red spider mite (Tetranychus urticae) are immersed into an active compound preparation of the desired concentration.
# After the desired time, the efficacy is determined in %. 100% means that all the spider mites have been killed; 0% means that none of the spider mites have been killed.
# [4] = gradient of acetonitrile/0.1% aqueous phosphoric acid, HPLC, gradient method, acetonitrile/0.1% aqueous phosphoric acid, Table 1
# [5] = HPLC, gradient method, acetonitrile/0.1% aqueous phosphoric acid, Table 1
Structure (SMILES),"chromatographic logP [1, 4]","logP [1, 5]",pest or weed control at 250 g/ha (Plasmopara viticola),pest or weed control at 250 g/ha (Venturia inaequalis),other results
O=S1(=O)CSC(Oc2ccc(Cl)cc2Cl)=N1 [Example 96],–,–,≥ 90%,≥ 90%,–
O=S1(=O)CSC(Oc2cccc(Cl)c2Cl)=N1 [Example 101],–,–,≥ 90%,≥ 90%,–
CC(C)(C)c1cccc(OC2=NS(=O)(=O)CS2)c1 [Example 114],3.27,–,–,≥ 90%,–
O=[N+]([O-])c1ccccc1OC1=NS(=O)(=O)CS1 [Example 128],1.84,–,≥ 90%,–,–
O=S1(=O)CSC(Oc2ccc(Cl)cc2)=N1 [Example 93],–,–,–,–,Minimum inhibitory concentrations Aspergillus Niger (Aspergillus Niger): 100 ppm; Minimum inhibitory concentrations Chaetomium globosum (Chaetomium globosum): 50 ppm; Minimum inhibitory concentrations Penicillium brevicaule (Penicillium brevicaule): 20 ppm; MIC (Penicillium brevicaule): 10 to 100 µg/mL
C/C(=N/OC(C)(C)C)c1ccc(OC2=NS(=O)(=O)CS2)cc1 [Example 24],3.98,–,–,≥ 90%,–
O=S1(=O)CSC(Oc2ccc(Cl)c(Cl)c2)=N1 [Example 100],–,–,≥ 90%,≥ 90%,Minimum inhibitory concentrations Aspergillus Niger (Aspergillus Niger): 100 ppm; Minimum inhibitory concentrations Chaetomium globosum (Chaetomium globosum): 50 ppm; Minimum inhibitory concentrations Penicillium brevicaule (Penicillium brevicaule): 20 ppm; MIC (Penicillium brevicaule): 10 to 100 µg/mL
O=S1(=O)CSC(Oc2c(Cl)cccc2Cl)=N1 [Example 102],–,–,≥ 90%,–,–
C=CCO/N=C(/c1ccccc1)c1cccc(OC2=NS(=O)(=O)CS2)c1 [Example 42],3.72,–,≥ 90%,–,–
O=S1(=O)CSC(Oc2ccccc2OC(F)(F)F)=N1 [Example 133],2.63,–,–,≥ 90%,–
"Cc1cc(Cl)cc(OC2=NS(=O)(=O)CS2)c1 [Example 1, 3-(3-chloro-5-methylphenoxy)-1λ^6,4,2-dithiazole-1,1(5H)-dione]",–,–,≥ 90%,≥ 90%,MIC (Penicillium brevicaule): 10 to 100 µg/mL
CO/N=C(/C)c1ccc(OC2=NS(=O)(=O)CS2)cc1 [Example 20],2.62,–,–,–,Destruction in % after 7^h ([3]; after 7^h): 95%; destruction after 7 days ([3]; after 7 days): 95%
CC(=O)c1ccc(OC2=NS(=O)(=O)CS2)cc1 [Example 21],1.69,–,≥ 90%,–,–
CC(C)(C)c1ccc(OC2=NS(=O)(=O)CS2)cc1 [Example 98],–,–,≥ 90%,–,–
O=C(c1ccccc1)c1cccc(OC2=NS(=O)(=O)CS2)c1 [Example 27],2.66,–,≥ 90%,≥ 90%,–
Cc1cc(Cl)cc(OC2=NS(=O)(=O)CS2)c1 [Example 92],–,–,–,–,Minimum inhibitory concentrations Aspergillus Niger (Aspergillus Niger): 100 ppm; Minimum inhibitory concentrations Chaetomium globosum (Chaetomium globosum): 100 ppm; Minimum inhibitory concentrations Penicillium brevicaule (Penicillium brevicaule): 20 ppm
Cc1ccc(OC2=NS(=O)(=O)CS2)cc1 [Example 105],–,–,≥ 90%,≥ 90%,–
Cc1cccc(OC2=NS(=O)(=O)CS2)c1 [Example 106],–,–,≥ 90%,≥ 90%,–

Structure (SMILES),"chromatographic logP [1, 4]","logP [1, 5]",pest or weed control at 250 g/ha (Plasmopara viticola),pest or weed control at 250 g/ha (Venturia inaequalis),other results
CCOC(=O)NN=C(C)c1ccc(OC2=NS(=O)(=O)CS2)cc1 [Example 72],–,1.86,–,–,–
Cc1cc(S(=O)(=O)c2ccccc2)cc(Cl)c1OC1=NS(=O)(=O)CS1 [Example 120],–,2.83,–,–,–
O=S1(=O)CSC(Oc2ccc3c(c2)OCO3)=N1 [Example 142],–,–,–,–,chromatographic logP ([1]; Table 2): 1.9
O=S1(=O)CSC(Oc2cccc(Cl)c2)=N1 [Example 94],–,–,–,≥ 90%,Minimum inhibitory concentrations Aspergillus Niger (Aspergillus Niger): 100 ppm; Minimum inhibitory concentrations Chaetomium globosum (Chaetomium globosum): 100 ppm; Minimum inhibitory concentrations Penicillium brevicaule (Penicillium brevicaule): 20 ppm; MIC (Penicillium brevicaule): 10 to 100 µg/mL
CO/N=C(/c1ccccc1)c1cccc(OC2=NS(=O)(=O)CS2)c1 [Example 41],3.28,–,≥ 90%,–,–
CC(=O)c1cc(OC2=NS(=O)(=O)CS2)cc([N+](=O)[O-])c1 [Example 74],–,1.95,–,–,–
O=C(Cc1ccccc1)c1ccc(OC2=NS(=O)(=O)CS2)cc1 [Example 65],–,2.76,–,–,–
CC(C)n1nc(-c2ccc(OC3=NS(=O)(=O)CS3)cc2)ccc1=O [Example 19],–,2.15,–,–,–
COC(=O)C(=NOCC#N)c1ccccc1OC1=NS(=O)(=O)CS1 [Example 7],–,1.7,–,–,–
O=S1(=O)CSC(Oc2ccc(Cl)cc2Cc2ccccc2)=N1 [Example 99],–,–,≥ 90%,–,–
O=S1(=O)CSC(Oc2ccc(N=Nc3ccccc3)cc2Cl)=N1 [Example 48],–,3.96,–,–,–
O=S1(=O)CSC(Oc2ccc3oc(=S)sc3c2)=N1 [Example 141],–,–,≥ 90%,≥ 90%,chromatographic logP ([1]; Table 2): 2.64
CCON=C(C)c1ccc(OC2=NS(=O)(=O)CS2)c(C)c1 [Example 17],–,3.32,–,–,–
Cc1ccc(C)c(OC2=NS(=O)(=O)CS2)c1 [Example 125],–,2.63,–,–,–
CC1(C)Oc2cccc(OC3=NS(=O)(=O)CS3)c2O1 [Example 150],–,–,–,–,chromatographic logP ([1]; Table 2): 2.6
O=S1(=O)CSC(Oc2ccccc2)=N1 [Example 1],–,–,–,–,"MIC (Aspergillus Niger; Aspergillus niger, 336 h, read-out: Minimum inhibitory concentrations Aspergillus Niger): 100 µg/mL; MIC (Chaetomium globosum; Chaetomium globosum, 336 h, read-out: Minimum inhibitory concentrations Chaetomium globosum): 100 µg/mL; MIC (Penicillium brevicaule): 100 µg/mL"
Cc1cc(OC2=NS(=O)(=O)CS2)ccc1N [Example 137],–,0.83,–,–,–
O=S1(=O)CSC(Oc2ccccc2Cl)=N1 [Example 95],–,–,≥ 90%,≥ 90%,–

# Continued, in another order:
"chromatographic logP [1, 4]","logP [1, 5]",Structure (SMILES),pest or weed control at 250 g/ha (Plasmopara viticola),pest or weed control at 250 g/ha (Venturia inaequalis),other results
2.05,–,O=S1(=O)CSC(Oc2cccc(F)c2)=N1 [Example 111],–,≥ 90%,–
1.73,–,CC(=O)c1cccc(OC2=NS(=O)(=O)CS2)c1 [Example 40],≥ 90%,≥ 90%,Destruction in % after 6^d [2]: 90%
3.94,–,C/C(=N/OC(C)(C)C)c1cccc(OC2=NS(=O)(=O)CS2)c1 [Example 28],≥ 90%,≥ 90%,–
2.3,–,O=S1(=O)CSC(Oc2ccccc2Br)=N1 [Example 108],–,≥ 90%,–
2.47,–,O=S1(=O)CSC(Oc2cccc(Br)c2)=N1 [Example 119],≥ 90%,–,–
2.02,–,O=S1(=O)CSC(Oc2ccccc2F)=N1 [Example 110],–,≥ 90%,–
–,1.33,CON=C(C(N)=O)c1ccccc1OC1=NS(=O)(=O)CS1 [Example 11],–,–,–
–,3.67,CC(=NOCc1ccccc1)c1cccc(OC2=NS(=O)(=O)CS2)c1 [Example 25],–,–,–
–,1.79,CCOC(=O)NN=Cc1cccc(OC2=NS(=O)(=O)CS2)c1 [Example 36],–,–,–
–,1.37,O=S1(=O)CSC(Oc2cccc(OCCO)c2)=N1 [Example 91],–,–,–
–,4.19,O=S1(=O)CSC(Oc2ccc(C3=Nc4ccccc4SC(c4ccccc4)C3)cc2)=N1 (stereo not drawn) [Example 73],–,–,–
–,1.23,O=S1(=O)CSC(Oc2cccc(CO)c2)=N1 [Example 46],–,–,–
3.67,–,C/C(=N/OCc1ccccc1)c1ccc(OC2=NS(=O)(=O)CS2)cc1 [Example 22],–,–,Destruction in % after 6^d [2]: 100%
2.62,–,Cc1ccc(Cl)c(OC2=NS(=O)(=O)CS2)c1 [Example 115],–,≥ 90%,–
–,3.39,Cc1cc(OC2=NS(=O)(=O)CS2)ccc1SC(F)(F)F [Example 52],–,–,–
–,2.02,COc1ccccc1OC1=NS(=O)(=O)CS1 [Example 136],–,–,–
